Data published in patent publication US8993570B2, “Substituted triazolo-pyridazine derivatives” (Concert Pharmaceuticals, Inc., priority 2009, dated 2015).

What was measured:
[1] = Metabolic stability in human liver microsomes; type: in vitro ADME; conditions: 0.25 μM test compound; for % Parent Remaining (30 min) Ave ± SD: human liver microsomes 2.0 mg/mL, 2 mM NADPH, pH 7.4, 37° C.; for half-life at 0.25 μM: pH 7.4, in vitro t1/2 in human liver microsomes 2.0 mg/mL, NC = not calculable due to <20% metabolism in HLM and flat profiles, read-out: t1/2 (min) Ave ± SD
Protocol: Microsomal Assay: Human liver microsomes (20 mg/mL) were obtained from Xenotech, LLC (Lenexa, Kans.). β-nicotinamide adenine dinucleotide phosphate, reduced form (NADPH), magnesium chloride (MgCl2), and dimethyl sulfoxide (DMSO) were purchased from Sigma-Aldrich.
Determination of Metabolic Stability: 7.5 mM stock solutions of test compounds were prepared in DMSO. The 7.5 mM stock solutions were diluted to 12.5 μM in acetonitrile (ACN). The 20 mg/mL human liver microsomes were diluted to 2.5 mg/mL in 0.1 M potassium phosphate buffer, pH 7.4, containing 3 mM MgCl2. The diluted microsomes were added to wells of a 96-well deep-well polypropylene plate in triplicate. […] of the 12.5 μM test compound was added to the microsomes and the mixture was pre-warmed for 10 minutes. Reactions were initiated by addition of pre-warmed NADPH solution. The final reaction volume was 0.5 mL and contains 2.0 mg/mL human liver microsomes, 0.25 μM test compound, and 2 mM NADPH in 0.1 M potassium phosphate buffer, pH 7.4, and 3 mM MgCl2. The reaction mixtures were incubated at 37° C., and 50 μL aliquots were removed at 0, 5, 10, 20, and 30 minutes and added to shallow-well 96-well plates which contain 50 μL of ice-cold ACN with internal standard to stop the reactions. The plates were stored at 4° C. for 20 minutes after which 100 μL of water was added to the wells of the plate before centrifugation to pellet precipitated proteins. Supernatants were transferred to another 96-well plate and analyzed for amounts of parent remaining by LC-MS/MS using an Applied Bio-systems API 4000 mass spectrometer. The same procedure was followed for TPA-023 and the positive control, 7-ethoxycoumarin (1 μM). Testing was done in triplicate and individual compounds were tested in two or four different runs.
The in vitro t1/2s for test compounds were calculated from the slopes of the linear regression of % parent remaining (ln) vs incubation time relationship: in vitro t1/2=0.693/k k=−[slope of linear regression of % parent remaining (ln) vs incubation time]. Data analysis was performed using Microsoft Excel Software.
The results of these experiments are shown in Table 3, below, and in FIGS. 1 and 2. In the Table and the two Figures, “% Parent remaining” refers to the percentage of starting material remaining at the specified time point.

[2] = humans, phase I clinical trial, cited from earlier work

| % Parent Remaining (30 min) Ave ± SD [1] [%] | SMILES | further results |
| --- | --- | --- |
| 80 ± 3.3 | [2H]C([2H])([2H])C(c1cc2nnc(-c3ccccc3F)n2nc1OCc1ncnn1CC)(C([2H])([2H])[2H])C([2H])([2H])[2H] [Compound 102, 7-d9-tert-Butyl-6-((1-ethyl-1H-1,2,4-triazol-5-yl)methoxy)-3-(2-fluorophenyl)-[1,2,4]-triazolo[4,3-b]pyridazine] | half-life at 0.25 μM [1]: 85.6 ± 6.1 min |
| 90 ± 0.7 | [2H]C([2H])([2H])C([2H])([2H])n1ncnc1COc1nn2c(-c3ccccc3F)nnc2cc1C(C([2H])([2H])[2H])(C([2H])([2H])[2H])C([2H])([2H])[2H] [Compound 105] |  |
| 89 ± 2.5 | [2H]C([2H])(Oc1nn2c(-c3ccccc3F)nnc2cc1C(C([2H])([2H])[2H])(C([2H])([2H])[2H])C([2H])([2H])[2H])c1ncnn1C([2H])([2H])C([2H])([2H])[2H] [Compound 106, 7-d9-tert-Butyl-6-((1-d5-ethyl-1H-1,2,4-triazol-5-yl)-methoxy-d2)-3-(2-fluorophenyl)-[1,2,4]triazolo[4,3-b]pyridazine] |  |
| 100 ± 5.7 | [2H]C([2H])([2H])n1ncnc1COc1nn2c(-c3ccccc3F)nnc2cc1C(C([2H])([2H])[2H])(C([2H])([2H])[2H])C([2H])([2H])[2H] [Compound 109, 7-d9-tert-Butyl-3-(2-fluorophenyl)-6-((1-d3-methyl-1H-1,2,4-triazol-5-yl)methoxy)-[1,2,4]triazolo[4,3-b]pyridazine] |  |
| 91 ± 7.1 | [2H]C([2H])(Oc1nn2c(-c3ccccc3F)nnc2cc1C(C([2H])([2H])[2H])(C([2H])([2H])[2H])C([2H])([2H])[2H])c1ncnn1C([2H])([2H])[2H] [Compound 110, 7-d9-tert-Butyl-3-(2-fluorophenyl)-6-((1-d3-methyl-1H-1,2,4-triazol-5-yl)-methoxy-d2)-[1,2,4]triazolo[4,3-b]pyridazine] |  |
| 82 ± 2.8 | [2H]C([2H])([2H])C(O)(c1cc2nnc(-c3ccccc3F)n2nc1OCc1ncnn1CC)C([2H])([2H])[2H] [Compound 202, 2-(6-((1-ethyl-1H-1,2,4-triazol-5-yl)methoxy)-3-(2-fluorophenyl)[1,2,4]triazolo[4,3-b]pyridazin-7-yl)propan-1,1,1,3,3,3-d6-2-ol] |  |
| 92 ± 3.5 | [2H]C([2H])(Oc1nn2c(-c3ccccc3F)nnc2cc1C(O)(C([2H])([2H])[2H])C([2H])([2H])[2H])c1ncnn1C([2H])([2H])C([2H])([2H])[2H] [Compound 206, 2-(6-((1-d5-Ethyl-1H-1,2,4-triazol-5-1)methoxy-d2)-3-(2-fluorophenyl)-[1,2,4]triazolo[4,3-b]pyridazin-7-yl)propan-1,1,1,3,3,3-d6-2-ol] |  |
| 62 ± 3.1 | CCn1ncnc1COc1nn2c(-c3ccccc3F)nnc2cc1C(C)(C)C [TPA023, 7-tert-Butyl-6-(1-ethyl-1H-1,2,4-triazol-5-ylmethoxy)-3-(2-fluorophenyl)-1,2,4-triazolo[4,3-b]pyridazine] | half-life at 0.25 μM [1]: 44.5 ± 4.4 min; sedative effects ([2]; certain doses tested): sedative effects at certain doses tested; anxiolytic effects [2]: anxiolytic effects; effect on alertness, muscle relaxation or memory [2]: no effect |
